Reference: PubChem BioAssay AID1918940 (Molecular Pharmacology Branch, DTP, NCI, 2023)
Several values for one entry are separate records, joined by “and”; a condition that tells them apart may be missing. Equal values may be shown once.

Test system: NCI-H211 complex spheroid viability
Experiment: Anticancer human tumor NCI-H211 cell line growth inhibition [LSD1];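 also: luminescent viability read after seven days of drug exposure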;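 as to viability, T/C: 100% = DMSO vehicle control viability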
Settings: for viability, T/C: stronger effect = lower value; for IC50: curve of compound
Source text: Multicellular complex tumor spheroid response to LSD1 Inhibitor Iadademstat in combination with a variety of drugs and investigational agents in selected tumor cell lines
The current study was undertaken to assess response to LSD1 inhibitors in combination with standard-of-care drugs and investigational agents in solid tumor complex spheroid models as well as in the K-562 leukemia. Complex spheroids include a stromal component modeled by human endothelial cells (HUVEC) and fibroblasts modeled by human mesenchymal stem cells (MSCs). The concentration ranges selected for each drug and investigational agent were based upon clinically achievable concentrations if the clinical Cmax of the agent was known.
Compounds. The drugs and investigational agents used in this study are listed on Table 1. All of the agents used, including staurosporine (NSC755774) and gemcitabine (NSC613327), were obtained from the Developmental Therapeutics Program, NCI. FDA-approved anticancer drugs are available from the NCI at http://dtp.nci.nih.gov/branches/dscb/oncology_drugset_explanation.html. Drugs and investigational agents were >95% pure by proton nuclear magnetic resonance (NMR) and liquid chromatography/mass spectrometry (LC/MS). Stock solutions were prepared at 400x in DMSO, stored at -70 degrees C, and diluted in fresh medium prior to their use. The final concentration of DMSO in cell culture wells never exceeded 0.25% (v/v). The FDA-approved anticancer drug set is available from the Developmental Therapeutics Program at https://dtp.cancer.gov/organization/dscb/obtaining/available_plates.htm. All drugs and investigational agents were tested over a range starting from a high concentration at or near the clinical Cmax and decreasing in half-log increments. If the clinical Cmax for an agent had not been determined, the highest concentration tested was 10 microM.
Cell Lines. The patient-derived cancer cell (PDC) lines: 292921-168-R-J2-PDC, K24384-001-R-PDC, and 521955-158-R2-J5-PDC pancreatic carcinomas, 556581-035-R-J1 ovarian carcinoma, 324938-238-R-J1-PDC, 855422-203-R-J1-PDC and 883617-216-R-J1-PDC urothelial bladder carcinomas, 743489-274-T-PDC renal cell carcinoma, 138582-R-J1 Merkel cell tumor, K60290-347-R-J1 and K57222-313-R-J1-PDC glioblastomas, 653999-131-R-J2-PDC, LG0703-F948-PDC, and 349418-098-R-PDC non-small cell lung carcinomas, 885512-296-R-J2-PDC, 171881-019-R-J1-PDC breast carcinomas and 186277-243-T-J2-PDC and 233499-124-R-J2-PDC colon carcinomas were obtained from the NCI Patient-Derived Models Repository (PDMR, https://pdmr.cancer.gov). The established cell lines NCI/ADR-RES (RRID:CVCL_14520 and OVCAR-5 (RRID:CVCL_1628) ovarian carcinomas, 786-O (RRID:CVCL_1051) and A498 (RRID:CVCL_A498) renal cell carcinoma, NCI-H211 (ATCC, cat. CRL-5824; RRID:CVCL_1529), NCI-H196 (ATCC, cat. CRL-5823, RRID:CVCL_1509), SW 1271 (ATCC, cat. CRL-2177, RRID:CVCL_1716) and NCI-H1876 (ATCC, cat. CRL-5902, RRID:CVCL_1503) small cell lung carcinomas, MDA-MB-231 (RRID:CVCL_0062) and MDA-MB-468 (RRID:CVCL_0419)breast carcinomas (10-12). Pooled donor human umbilical vein endothelial cells (HUVEC, Lonza, cat. CC-2519) and human mesenchymal stem cells (hMSC, Lonza, cat. PT-2501) were purchased from Lonza (Walkersville, MD).
Cell Culture. All cells were maintained in an incubator at 37 degrees C and 5% CO2 with 95% humidity. The PDC lines were cultured according to standard operating procedures established by the NCI PDMR (https://pdmr.cancer.gov). Briefly all PDCs were thawed and cultured in Matrigel-coated flasks prepared with a working solution of 1X Ham's F-12 nutrient mix, without supplementation (Invitrogen, Waltham, MA, cat. 11765054), 100 U/mL penicillin-streptomycin (Invitrogen, cat. 15140122), and 2.5% Matrigel (Corning Inc., Corning, NY, cat. 354248) for the first three passages. […]

IC50 | SMILES | viability, T/C (compound 0.000316 µM) | viability, T/C (compound 0.001 µM) | viability, T/C (compound 0.00316 µM) | viability, T/C (compound 0.01 µM) | viability, T/C (compound 0.0316 µM) | viability, T/C (compound 0.1 µM) | viability, T/C (compound 0.316 µM) | viability, T/C (compound 1 µM) | viability, T/C (compound 3.16 µM) | viability, T/C (compound 10 µM) | viability, T/C (compound 0.00949 µM) | viability, T/C (compound 0.03 µM) | viability, T/C (compound 0.0949 µM) | viability, T/C (compound 0.3 µM) | viability, T/C (compound 0.949 µM) | viability, T/C (compound 3 µM) | viability, T/C (compound 0.000949 µM) | viability, T/C (compound 0.003 µM)
2.13 nM and 2.1 nM | CC(C)CC(NC(=O)C(Cc1ccccc1)NC(=O)c1cnccn1)B(O)O (stereo not drawn) | 109% and 100% | 96.9% and 86.8% | 25.4% and 29.6% | 6.26% and 1.54% | 0.16% and 0.2% | 0.16% and 0.32% | – | – | – | – | – | – | – | – | – | – | – | –
14.4 nM and 8.63 nM | CC(C)CC(NC(=O)CNC(=O)c1cc(Cl)ccc1Cl)B1OC(=O)CC(CC(=O)O)(C(=O)O)O1 (stereo not drawn) | 125% and 105% | 114% and 102% | 112% and 115% | 65.5% and 41.5% | 16% and 14% | 3.55% and 4.35% | – | – | – | – | – | – | – | – | – | – | – | –
> 10000 nM | CC(C)c1c(-c2ccccc2)nc2c(C#N)c[nH]n2c1=O | – | – | – | – | 104% and 81.5% | 127% and 88% | 103% and 68.7% | 114% and 68.7% | 98.9% and 67% | 97.3% and 75.2% | – | – | – | – | – | – | – | –
– | CC1(C)CCC(CN2CCN(c3ccc(C(=O)NS(=O)(=O)c4ccc(NCC5CCOCC5)c([N+](=O)[O-])c4)c(Oc4cnc5[nH]ccc5c4)c3)CC2)=C(c2ccc(Cl)cc2)C1 | – | – | – | – | 95.3% and 36.1% | 98.2% and 43.8% | 98.3% and 47.9% | 124% and 72.7% | 118% and 99.6% | 32.2% and 60.1% | – | – | – | – | – | – | – | –
4.96 nM and < 3.16 nM | CC1COCCN1c1cc(-c2ccnn2C)c2ccnc(-c3ccn[nH]3)c2n1 (stereo not drawn) | – | – | 68.4% and 38.3% | 21.5% and 14% | 4.05% and 7.88% | 2.34% and 6.02% | 2.16% and 5.04% | 2.28% and 5.77% | – | – | – | – | – | – | – | – | – | –
299 nM and 405 nM | CC1COCCN1c1cc(C2(S(C)(=N)=O)CC2)nc(-c2ccnc3[nH]ccc23)n1 (stereo not drawn) | – | – | – | – | 84.3% and 102% | 72.6% and 81.8% | 49.4% and 63.4% | 20.4% and 14.6% | 4.23% and 5.02% | 2.56% and 2.74% | – | – | – | – | – | – | – | –
> 3000 nM and 1390 nM | CCN(c1cc(-c2ccc(CN3CCOCC3)cc2)cc(C(=O)NCc2c(C)cc(C)[nH]c2=O)c1C)C1CCOCC1 | – | – | – | – | – | – | – | – | – | – | 122% and 86.1% | 108% and 75.3% | 100% and 68.3% | 97.3% and 54.6% | 96.4% and 52.2% | 93.8% and 47.7% | – | –
0.447 nM and 0.455 nM | CC[C@@]1(O)C(=O)OCc2c1cc1n(c2=O)Cc2cc3c(CN(C)C)c(O)ccc3nc2-1 | 66.6% and 67% | 11.4% and 13.2% | 2.8% and 5.22% | 2.3% and 5.28% | 2.56% and 5.04% | 0.87% and 3.38% | – | – | – | – | – | – | – | – | – | – | – | –
< 0.949 nM | CCc1c2c(nc3ccc(O)cc13)-c1cc3c(c(=O)n1C2)COC(=O)[C@]3(O)CC | – | – | – | – | – | – | – | – | – | – | 0.42% and 1.27% | 0.59% and 0.51% | 0.14% and 0.18% | 0.21% and 0.25% | – | – | 1.09% and 3.31% | 0.88% and 2.36%
14.7 nM and < 9.49 nM | COc1cc(C2c3cc4c(cc3C(OC3OC5COC(C)OC5C(O)C3O)C3COC(=O)C23)OCO4)cc(OC)c1O (stereo not drawn) | – | – | – | – | – | – | – | – | – | – | 71.3% and 48.3% | 15.2% and 13.1% | 2.55% and 6.21% | 2.41% and 5.04% | 2.11% and 6.22% | 2.35% and 5.42% | – | –
< 3.16 nM | COc1cc(Nc2ncc3c(n2)-c2ccc(Cl)cc2C(c2c(F)cccc2OC)=NC3)ccc1C(=O)O | – | – | 44.2% and 45.2% | 8.97% and 8.03% | 5.37% and 3.95% | 4.19% and 5.61% | 3.59% and 4.36% | 3.38% and 3.29% | – | – | – | – | – | – | – | – | – | –
4700 nM and 4950 nM | COc1ccc([C@@H](O)c2cc(-c3ncnc4cc(N5CCOCC5)ccc34)c(F)cc2Cl)nn1 | – | – | – | – | 108% and 89.2% | 96.5% and 86.3% | 93.7% and 94.2% | 103% and 87.4% | 70.8% and 76.6% | 10.4% and 8.12% | – | – | – | – | – | – | – | –
2.79 nM and 2.01 nM | Cn1ncnc1C1c2n[nH]c(=O)c3cc(F)cc(c23)NC1c1ccc(F)cc1 (stereo not drawn) | 102% and 103% | 94.9% and 82.6% | 44.8% and 29% | 5.27% and 6.62% | 8.07% and 5.97% | 3.43% and 6.43% | – | – | – | – | – | – | – | – | – | – | – | –
– | NC1CCC(NC2CC2c2ccccc2)CC1 (stereo not drawn) | – | – | – | – | – | – | 74.9% [middle of 4 runs] | – | – | 36.1% [middle of 23 runs] | – | – | – | – | – | – | – | –
< 9.49 nM | NS(=O)(=O)OCC1CC(n2ccc3c(NC4CCc5ccccc54)ncnc32)CC1O (stereo not drawn) | – | – | – | – | – | – | – | – | – | – | 27% and 23.2% | 11.8% and 10.5% | 2.66% and 3.81% | 6.35% and 1.26% | 0.58% and 0.97% | 0.31% and 0.53% | – | –
31.3 nM and 22.1 nM | Nc1ccccc1NC(=O)c1ccc(CNC(=O)OCc2cccnc2)cc1 | – | – | – | – | – | – | – | – | – | – | 106% and 110% | 51.8% and 28.6% | 5.07% and 4.05% | 1.34% and 3.99% | 0.93% and 2.1% | 0.2% and 0.22% | – | –
< 0.949 nM | Nc1ccn(C2OC(CO)C(O)C2(F)F)c(=O)n1 (stereo not drawn) | – | – | – | – | – | – | – | – | – | – | 7.87% and 4.04% | 2.08% and 4.19% | 2.85% and 4.27% | 2.42% and 5% | – | – | 2.49% and 5.54% | 2.72% and 4.15%
< 3.16 nM | Nc1ncn(C2CC(O)C(CO)O2)c(=O)n1 (stereo not drawn) | – | – | 35.4% and 37.7% | 21.4% and 19% | 9.11% and 7% | 2.47% and 4.09% | 1.77% and 5.19% | 1.67% and 4.71% | – | – | – | – | – | – | – | – | – | –
1.89 nM and < 0.949 nM | Nc1ncn(C2CC(O)C(CO)S2)c(=O)n1 (stereo not drawn) | – | – | – | – | – | – | – | – | – | – | 9.28% and 10.7% | 3.02% and 5.29% | 1.96% and 4.56% | 2.36% and 4.76% | – | – | 74.8% and 46.6% | 33.3% and 23.1%
< 9.49 nM | O=C(C=Cc1cccc(S(=O)(=O)Nc2ccccc2)c1)NO | – | – | – | – | – | – | – | – | – | – | 28.4% and 18.3% | 3.38% and 8.21% | 2.69% and 7.91% | 2.15% and 6.02% | 0.94% and 1.35% | 0.17% and 0.22% | – | –
< 3.16 nM and 4.13 nM | O=C(C=Cn1cnc(-c2cc(C(F)(F)F)cc(C(F)(F)F)c2)n1)NNc1cnccn1 | – | – | 45.9% and 53.7% | 24% and 37.6% | 11.7% and 14.6% | 4.91% and 5.02% | 1.61% and 2.32% | 1.37% and 2.1% | – | – | – | – | – | – | – | – | – | –
46.4 nM and 36.9 nM | O=C(c1cc(Cc2n[nH]c(=O)c3ccccc23)ccc1F)N1CCN(C(=O)C2CC2)CC1 | – | – | – | – | 59.8% and 54.5% | 30.3% and 22.6% | 6.95% and 9.45% | 3.01% and 7.35% | 2.95% and 7.77% | 2.77% and 6.06% | – | – | – | – | – | – | – | –
